{
  "source": "patent US20060046972A1",
  "about": "“Cytotoxic nucleoside analog compound 003 for treating cancer” (Parker Hughes Institute, priority 2004, published 2006)",
  "key": {"[1]": {"system": "NALM6 cells", "assay": "Gene profiling, Atlas Human cDNA Expression arrays", "type": "cell-based", "description": "Gene Profiling using the Atlas Human cDNA Expression arrays from Molecular Dynamics was preformed according to the manufacturer's specification, as described below.\nTotal RNA was prepared from NALM6 cells treated with Compound 003 (5, 50TM, vehicle) using Tripure isolation reagent (Boehringer Mannheim); the reagent is a monophasic solution of phenol and guanidine thiocyanate, followed by Dnase treatment (RQ1 Rnase-Free Dnase, Promega). Total RNA was quantified using standard spectrophotometric methods.\nFor probe preparation and hybridization, approximately 5 micrograms of total RNA was converted into radioactively labeled cDNA using […] (Amersham) by reverse transcriptase (Clontech). Chroma Spin columns (Clontech) were used to purify labeled cDNA. Atlas cDNA probe was denatured with 1M NaOH/10 mM EDTA and neutralized with 1M NaH2PO4 and C0t-1 DNA at 68° C. Prehybridization solution was discarded and arrays were hybridized overnight. Arrrays were washed 4 times by using 2×SSC/1% SDS and 2 times by using 0.1×SSC/0.5% SDS. Membranes were sealed and exposed to a phosphoscreen (Molecular Dynamics). The expression levels were quantified using 8 bit gray levels using image analysis software (Imagene 4.2, Biodiscovery; Inc).\nFor the Atlas Human cDNA Expression array, 588 genes were subdivided into these six functional groups: (A) Oncogenes, Tumor suppressors Cell Cycle regulators, (B) Ion channels and transport, Modulators, stress response, (C) Apoptosis, DNA synthesis, repair and recombination, (D) Transcription factors, DNA binding proteins, (E) Receptors, Cell surface antigens, Cell adhesion & (F) Growth factors, cytokines, chemokines, Interleukins, Hormones. The letters correspond to individual quadrants on the array and may be noted as the first letter in each abbreviation in Table 4.\nSpots on the macro arrays (5, 50 Tm and control) were analyzed using the spot finder technique in the Imagene software. The integrity and fragmentation: due to saturated pixels, of the spots was assessed and appropriate background measurements were chosen to detect signals. […] All drug treated samples (5, 50TM) were compared to no drug controls using a linear regression method for log2 transformed density readings (Genesight 3.1, Biodiscovery). A piecewise linear regression method (3 bins, minimum of 20 elements per bin) was used normalize density readings across the three arrays to minimize the effect of low expression and saturated signals on the regression. All housekeeping genes were monitored for detection of false positive signals."}, "[2]": {"assay": "Pharmacokinetics in CD-1 mice after intravenous or oral Compound 003", "type": "in vivo", "description": "Each plasma sample (200 μL) was mixed 1:4 with acetone (800 μL) and vortexed for at least 30 seconds. Following centrifugation, the supernatant was transferred into a clean tube and dried under nitrogen. A 50 μL solution of 50% methanol in 200 mM HCl was used to reconstitute the extraction residue, and 35 μL was subjected to analytical HPLC. The analytical column used was a 250×4 mm Lichrospher 100, RP-18 (5 μm) and the guard column was a 4×4 mm Lichrospher 100, RP-18 (5 μm). The mobile phase was degassed automatically by the electronic degasser system. The column was equilibrated and eluted under gradient conditions utilizing a flow rate of 1.0 ml/min at ambient temperature. The linear gradient mobile phase was: 0 minute, 100% 10 mM ammonium phosphate buffer (pH 3.7); 20 minutes, 20% acetonitrile, 80% ammonium phosphate buffer (pH 3.7); 20.1-50 minutes, 28% acetonitrile, 72% water (0.1% HAC). The wavelength of detection was set at 270 nm. Peak width, response time and slit werep, set at >0.03 minutes, 0.5 s and 8 nm, respectively.\nFemale CD-1 mice (6-8 weeks old) (Charles River, Wilmington, Mass.) were housed in a USDA-accredited animal care facility under standard environmental conditions (12-h light/12-h dark photoperiod, 22±1° C., 60±10% relative humidity). All rodents were housed in microisolator cages (Lab Products, Inc., N.J.) containing autoclaved bedding. Mice were allowed free access to autoclaved pellet food and tap water throughout the study. All animal studies are approved by the Parker Hughes Institute Animal Care and Use Committee, and all animal care procedures conformed to the principles outlined in the Guide for the Care and Use of Laboratory Animals (National Research Council;. National Academy Press, Washington D.C. 1996).\nCompound 003 (200 mg/kg) dissolved in DMSO was administered intravenously via tail vein to non-fasted mice or orally via gavage to 12-h fasted mice. Four to six mice per time-point were used for pharmacokinetic studies. Blood samples (˜500 μL) were obtained from the ocular venous plexus by retro-orbital venipuncture at 0, 5, 10, 15, 30, 45 minutes, and 1 h, 1.5 h, 2 h, 4 h, 6 h and 8 h after oral administration. All collected blood-samples were heparinized and centrifuged at 7000×g for 5 minutes to separate the plasma fraction from the whole blood. The plasma samples were then processed immediately using the extraction procedure described above.\nPharmacokinetic modeling and parameter calculations were carried out using the WinNonlin Professional Version 3.0 (Pharsight, Inc., Mountain, Calif.) pharmacokinetics software (Chen, C. L., et al., (1999) Pharm Res. 16:117; Chen, C. L., et al., (1999) Pharm Res. 16:1003; Uckun, F. M., et al., (1999) Clin Cancer Res. 5:2954). An appropriate model was chosen on the basis of the lowest sum of weighted squared residuals, the lowest Schwartz Criterion (SC), the lowest Akaike's Information Criterion (AIC) value, the lowest standard errors of the fitted parameters, and the dispersion of the residuals. The elimination half-life was estimated by linear regression analysis of the terminal phase of the plasma concentration-time profile. The systemic clearance (CL) was determined by dividing the dose by the AUC."}},
  "data": [
    {"smiles": "COC(=O)C(C)NP(=O)(OCC1OC(n2cc(C)c(=O)[nH]c2=O)CC1N=[N+]=[N-])Oc1ccc(OC)cc1", "note": "(stereo not drawn) [Compound 003, 3′-azidothymidine 5′-[p-methoxyphenylmethoxyalaninyl phosphate]]", "values": [
      {"measurement": "decreased expression of GADD 153 gene", "setting": "[1]", "result": "~3.5", "unit": "fold"},
      {"measurement": "downregulation of c-jun proto-oncogene", "setting": "[1]", "result": "~2", "unit": "fold"},
      {"measurement": "increase in the gene for myeloid cell nuclear differentiation antigen (MNDA)", "setting": "[1]; 50 μM", "result": "~4", "unit": "fold"},
      {"measurement": "increased expression of FAN gene", "setting": "[1]; 50 μM", "result": 3, "unit": "fold"},
      {"measurement": "in vivo transformation of parent compound", "setting": "[2]; i.v. injection of 200 mg/kg", "result": "immediately transformed to Ala-AZT-MP and AZT"},
      {"measurement": "plasma concentration of parent compound", "setting": "[2]; oral 200 mg/kg, below the detection limit", "result": "< 500", "unit": "nM"}
    ]}
  ]
}
